Test results from US20120059038A1, “[…]” (Astellas Pharma Inc., priority 2009, published 2012).
≈ marks a conversion by molar mass, not a printed value.

Key:
[1] = tested on: dormantfungi present around infections; conditions: reported in Mycoses, 46, pp. 505-510, 2003; cited from earlier work
Complex III = Complex III inhibitory activity, ubiquinol-cytochrome c reductase assay using isolated mitochondrial fraction; format: biochemical; conditions: mitochondrial fraction of Trichophyton mentagrophytes FP2103; kind of value (IC50 or other) not stated
Method: A medium (0.1% glucose, 0.2% bacto tryptone, 0.2% K2HPO4, 0.005% MgSO4.7H2O and 0.005% CaC12.2H2O) was poured into an Erlenmeyer flask and sterilized by autoclaving. Conidiophores of Trichophyton mentagrophytes FP2103 were inoculated into the medium, and cultured at 30° C. for 40 hours while shaking on a rotary shaker. The fungus was collected from the cultural solution and dipped in a cell wall lysis enzyme solution {1 M KC1, 25 mM CaC12.2H2O, 10 mM MgC12.6H2O, 5 mg/mL zymolyase-100T (Seikagaku Corporation), 1 mg/mL chitinase (Sigma) and 5 mg/mL drieselase (Sigma)}, and the resulting mixture was stirred at 30° C. for 4 hours. The enzyme treatment solution was filtered through glass funnel filled with gauze to obtain protoplast. A mitochondrial fraction was isolated from the protoplast by using a Mitochondria Isolation Kit (BioChain Institute, Inc.). The Complex III inhibitory activity was measured in the ubiquinol-cytochrome c reductase assay using the isolated mitochondrial fraction (The Journal of Biological Chemistry, 279, pp. 8708-8714, 2004). As a result, the compound A inhibited the complex III at 0.9 ng/mL.

[2] = tested on: Aspergillus fumigatus FP1305; assay: Antifungal activity, broth microdilution method; format: cell-based; conditions: minimum inhibitory concentration
Method: (§1) Antifungal activities for the following test fungi were determined by a broth microdilution method (Hikaru Kume and Toshikazu Yamazaki, Clinical Microbiology, Vol. 21, No. 5, pp. 573-580, 1994).

[3] = tested on: Alternaria alternata AHU9258; assay: Antifungal activity, broth microdilution method; format: cell-based; conditions: minimum inhibitory concentration
Method: as §1

[4] = tested on: Cryptococcus neoformans FP1739; assay: Antifungal activity, broth microdilution method; format: cell-based; conditions: minimum inhibitory concentration
Method: as §1

[5] = tested on: Trichophyton rubrum FP596; assay: Antifungal activity, broth microdilution method; format: cell-based; conditions: minimum inhibitory concentration
Method: as §1

[6] = tested on: Trichophyton mentagrophytes FP2103; assay: Antifungal activity, broth microdilution method; format: cell-based; conditions: minimum inhibitory concentration
Method: as §1

[7] = Cytotoxicity to EL-4 cells, cell counting kit; format: cell-based, mouse; conditions: mouse, EL-4 mouse T lymphoma cells, 37° C.
Method: (§2) Cytotoxicity was evaluated by adding a test drug to mouse T lymphoma cell line EL-4 at various concentrations, incubating the cells in a CO2 incubator at 37° C. for 72 hours, counting the cells using a cell counting kit (Wako Pure Chemical Industries, Ltd.), and calculating IC50 values.

[8] = tested on: mouse T lymphoma cell line EL-4; assay: Cytotoxicity to EL-4 cells, cell counting kit; format: cell-based; conditions: 37° C., 72 hours
Method: as §2

For CN(C/C=C/C#CC(C)(C)C)Cc1cccc2ccccc12 [Terbinafine], the “activity against dormant fungi” value [1] is listed as “weak activity”.
In the case of CCC(C)CC(C)CCC1CCCC(c2c(O)c(C3C(O)C(O)C(O)C3O)cn(C)c2=O)O1 (stereo not drawn) [compound A], the “concentration at which complex III was inhibited” value (Complex III) is reported as 0.9 ng/mL, the MIC [2] is reported as 25 µg/mL (≈ 53.5 µM) and the MIC [3] is reported as 6.3 µg/mL (≈ 13.5 µM). It also gave an MIC [4] of 1.3 µg/mL (≈ 2.78 µM), an MIC [5] of 0.1 µg/mL (≈ 0.214 µM) and an MIC [6] of 0.1 µg/mL (≈ 0.214 µM). For the same compound, the IC50 at 72 h [7] was 6.2 µg/mL (≈ 13.3 µM) and the “concentrations showing no cytotoxic effect” value [8] was ≤ 3100 ng/mL.
